In data set [1] the target is T1, HCV NS5B RNA-dependent RNA polymerase (1b-BKΔ55) (Hepatitis C virus genotype 1b, UniProt P26663).
T1 construct: 5 nM NS5B (1b-BKΔ55) enzyme
Briefly: Inhibition of HCV NS5B polymerase by nucleoside triphosphate analogs (radiolabeled nucleotide incorporation assay). The class given is biochemical. The method, then: To measure inhibition of the enzymatic activity of the HCV NS5B RNA-dependent RNA polymerase by the nucleoside triphosphate compounds of the present invention, a radiolabeled nucleotide incorporation assay was used. This assay is a modified version of the assay described in International Publication No. WO2002/057287. Briefly, 50 μL reactions containing 20 mM HEPES (pH 7.3); 7.5 mM DTT; 20 units/mL RNasIN; 1 μM each of ATP, GTP, UTP and CTP; 20 μCi/mL [^33P]-CTP; 10 mM MgCl; 60 mM NaCl; 100 μg/mL BSA; 0.021 μM DCoH heteropolymer RNA template; and 5 nM NS5B (1b-BKΔ55) enzyme are incubated at room temperature for 1 hour. The assay is then terminated by the addition of 500 mM EDTA (50 μL). The reaction mixture is transferred to a Millipore DE81 filter plate and the incorporation of labeled CTP is determined using Packard TopCount. Compound IC50 values can then be calculated from experiments with 10 serial 3-fold dilutions of the inhibitor in duplicate. The intrinsic potency (Ki) of an NTP inhibitor is derived from its NS5B IC50 using the Cheng-Prusoff equation for a competitive inhibitor, as described in Cheng et al., Biochem Pharmacol 22:3099-3108 (1973): Ki=IC50/(1+[S]/Km), where [S]=1 μM, and Km is the concentration of cognate NTP yielding half-maximal enzyme activity in the assay absent exogenous inhibitors.
Data was obtained using this method for the NTP analogs of selected compounds below of the present invention, and is set forth below.

Data set [2] deals with HCV replicon cells (1b-Con1). Briefly: Replicon activity assay (replicon RNA level by real-time RT-PCR). It is filed as cell-based. Particulars: Hepatitis C virus, 72 h, read-out: Replicon (1b) EC50. Background: A replicon is a self-replicating genome or part of one, used to study replication in cells.
Data set [3] concerns replicon cells (1b-Con1). Briefly: Cytotoxicity in replicon cells (MTS assay). Particulars: CC50, MTS assay, three days post dosing.

Like-named read-outs stand apart in the source and are kept apart here.

T1 sequence (P26663 2420-2955, stated change not applied): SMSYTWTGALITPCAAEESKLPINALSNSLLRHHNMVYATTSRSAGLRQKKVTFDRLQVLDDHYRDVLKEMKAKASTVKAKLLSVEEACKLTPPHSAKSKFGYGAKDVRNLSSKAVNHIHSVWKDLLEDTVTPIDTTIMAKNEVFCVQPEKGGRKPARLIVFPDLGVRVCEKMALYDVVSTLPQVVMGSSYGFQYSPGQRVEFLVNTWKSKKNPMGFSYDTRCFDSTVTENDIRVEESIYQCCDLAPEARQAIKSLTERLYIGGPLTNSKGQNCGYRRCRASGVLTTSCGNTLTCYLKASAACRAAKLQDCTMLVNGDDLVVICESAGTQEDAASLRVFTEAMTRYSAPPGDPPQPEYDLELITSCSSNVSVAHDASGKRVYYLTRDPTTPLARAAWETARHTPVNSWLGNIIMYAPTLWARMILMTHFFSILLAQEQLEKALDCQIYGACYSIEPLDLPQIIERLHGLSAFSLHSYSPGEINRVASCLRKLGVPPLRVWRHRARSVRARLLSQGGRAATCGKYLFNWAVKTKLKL

One may read the Ki as a measure of affinity in units of concentration, obtained from inhibition or displacement. `C#C[C@@]1(O)[C@H](O)[C@@H](COP(=O)(O)OP(=O)(O)OP(=O)(O)O)O[C@H]1n1ccc(=O)[nH]c1=O` yielded a Ki in data set [1] of 36 nM. The same measure, in the same setting: next, `C#C[C@]1(O)[C@H](O)[C@@H](COP(=O)(O)OP(=O)(O)OP(=O)(O)O)O[C@H]1n1ccc(=O)[nH]c1=O`: roughly 19000 nM; `CC#C[C@@]1(O)[C@H](O)[C@@H](COP(=O)(O)OP(=O)(O)OP(=O)(O)O)O[C@H]1n1ccc(=O)[nH]c1=O`: 58 nM.

Regarding `CC#C[C@]1(O)[C@H](O)[C@@H](COP(=O)(O)OP(=O)(O)OP(=O)(O)O)O[C@H]1n1ccc(=O)[nH]c1=O`, the Ki in data set [1] was roughly 12000 nM.

As to `C#C[C@@]1(N)[C@H](O)[C@@H](COP(=O)(O)OP(=O)(O)OP(=O)(O)O)O[C@H]1n1ccc(=O)[nH]c1=O`, the inhibitory constant (Ki) in data set [1] was 1200 nM.

A word on the EC50: it is the concentration giving half of the maximal effect. For `CC(C)OC(=O)[C@H](C)NP(=O)(OC[C@H]1O[C@@H](n2ccc(=O)[nH]c2=O)[C@@](O)(C#CC(F)(F)F)[C@@H]1O)Oc1ccccc1` (stereo partly shown), the half-maximal effective concentration (EC50) in data set [2] was found to be 25200 nM. In data set [3], the Cytotoxicity was determined as 40.7 µM. For `CC(C)OC(=O)[C@H](C)NP(=O)(OC[C@H]1O[C@@H](n2ccc(=O)[nH]c2=O)[C@@](O)(C#CC2CC2)[C@@H]1O)Oc1ccccc1` (stereo partly shown), the EC50 in data set [2] is 1100 nM. Besides, in data set [3], the Cytotoxicity came to 14.2 µM. Consider `CC#C[C@@]1(F)[C@H](O)[C@@H](COP(=O)(N[C@@H](C)C(=O)OC(C)C)Oc2ccccc2)O[C@H]1n1ccc(=O)[nH]c1=O` (stereo partly shown), for which the EC50 in data set [2] turned out to be 45700 nM. The compound further had a Cytotoxicity in data set [3] of 74.4 µM. As for `C#C[C@@]1(O)[C@H](O)[C@@H](COP(=O)(N[C@@H](C)C(=O)OC(C)C)Oc2ccccc2)O[C@H]1n1ccc(=O)[nH]c1=O` (single isomer, unassigned), the EC50 in data set [2] was determined as 90 nM. In data set [3], this compound displayed a Cytotoxicity greater than 100 µM. In the same order, the values of `C#C[C@@]1(O)[C@H](OC(=O)C(C)C)[C@@H](COP(=O)(N[C@@H](C)C(=O)OC(C)C)Oc2ccccc2)O[C@H]1n1ccc(=O)[nH]c1=O` (single isomer, unassigned) are 100 nM and greater than 100 µM. With `C#C[C@@]1(O)[C@@H]2OP(=O)(OC(C)C)OC[C@H]2O[C@H]1n1ccc(=O)[nH]c1=O` (single isomer, unassigned), in data set [2] (1b-Con1 replicon cells, three days post-dosing), the 50% effective concentration (EC50) came to 21000 nM. The compound further registered a Cytotoxicity in data set [3] greater than 100 µM. Consider `CC#C[C@]1(O)[C@H](O)[C@@H](COP(=O)(N[C@@H](C)C(=O)OC(C)C)Oc2ccccc2)O[C@H]1n1ccc(=O)[nH]c1=O` (single isomer, unassigned), for which the EC50 in data set [2] stood at 940 nM. The same compound had a Cytotoxicity in data set [3] greater than 100 µM.

Values taken from patent US9732111B2, “2′-alkynyl substituted nucleoside derivatives and methods of use thereof for the treatment of viral diseases” (Merck Sharp & Dohme Corp., priority 2012, dated 2017).
